Biological target: T1, RelSCg (Corynebacterium glutamicum, UniProt Q8NNR8)
T1 construct: gene Cgl2119; full-length; expressed in E. coli ER2566
T1 sequence (Q8NNR8 1-341): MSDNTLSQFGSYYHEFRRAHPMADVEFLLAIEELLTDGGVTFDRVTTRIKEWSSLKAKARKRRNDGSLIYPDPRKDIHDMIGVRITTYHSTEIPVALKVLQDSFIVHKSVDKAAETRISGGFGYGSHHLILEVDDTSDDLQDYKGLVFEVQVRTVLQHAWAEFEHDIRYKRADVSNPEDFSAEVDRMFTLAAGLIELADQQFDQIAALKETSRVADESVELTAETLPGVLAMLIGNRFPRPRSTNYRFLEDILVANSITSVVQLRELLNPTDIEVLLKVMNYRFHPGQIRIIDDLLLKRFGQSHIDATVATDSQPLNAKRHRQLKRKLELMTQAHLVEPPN
Assay: preparative pyrophosphorylation, product identified by HPLC-MS
Format: biochemical
Settings: 12 mM ATP, 10 mM MgCl2, 50 mM Tris-HCl pH 8, 16 h

Compound	preparative pyrophosphorylation, product identified by HPLC-MS
Nc1nc2c(ncn2[C@@H]2O[C@H](COP(=O)(O)OP(=O)(O)O)[C@@H](O)[C@H]2O)c(=O)[nH]1 [GDP]	produced by RelSCg-catalyzed pyrophosphorylation of GMP, GDP or GTP
Nc1nc2c(ncn2[C@@H]2O[C@H](COP(=O)(O)O)[C@@H](O)[C@H]2O)c(=O)[nH]1 [GMP]	produced by RelSCg-catalyzed pyrophosphorylation of GMP, GDP or GTP

Reference: article PMC5954133, “Functional Characterization of a Small Alarmone Hydrolase in Corynebacterium glutamicum” (Frontiers in Microbiology, 2018)
